From patent US9540323B2 (BRISTOL-MYERS SQUIBB COMPANY, priority 2012, dated 2017) come the findings set out here.

The target in assay [1] is cloned human P2Y1 receptors (Homo sapiens (Human), UniProt P47900). As to the kind of experiment: Binding Assay A - membrane binding assay, [33P] 2MeS-ADP (WGA FlashPlate). Conditions: values marked * in Table 1; 0.5 nM [33P] 2MeS-ADP, Cheng-Prusoff; read-out: P2Y1 Ki (nM) using binding assay A. An excerpt: A membrane binding assay was used to identify inhibitors of [^33P] […] The cDNA clone for human P2Y1 was obtained from Incyte Pharmaceuticals and its sequence confirmed by established techniques (for a compendium of techniques used see Ausubel, F. et al., Current Protocols in Molecular Biology, John Wiley and Sons, NY, NY (1995)). The essential coding sequences were subcloned into pCDNA 3.1 (Invitrogen) to produce a P2Y1 expression construct. This construct was then transfected into the human embryonic kidney cell line HEK-293 and stable transfectants selected in GENETICIN® (G418 sulfate; Life Technologies). […] Membranes were prepared by growing HEK293 #49 in 150 mm dishes in DMEM/10% FBS in the presence of 1 mg/ml G418 until cells were 80-90% confluent. Plates were then washed with cold (4° C.) D-PBS twice and cells harvested by scraping into 10 mL D-PBS. Cells were pelleted by centrifugation (1,000 g, 10 min, 4° C.) and the resulting pellet resuspended in Lysis Buffer (10 mM Tris (7.4), 5 mM MgCl2 containing Complete protease inhibitor cocktail (Roche Cat #1873580) as recommended by the manufacturer). The suspension was then homogenized in a Dounce homogenizer (10-15 strokes; B pestle, on ice) and the homogenate spun at 1,000 g, 4° C., 5 min to pellet large debris. The supernatant was centrifuged at 150,000 g, 4° C., for 1 hour and the resulting membrane pellet resuspended in 0.5-1 mL of Buffer B (15 mM HEPES (7.4), 145 mM NaCl, 0.1 mM MgCl2, 5 mM EDTA, 5 mM KCl) and stored at −70° C. until used.
Binding reactions were performed in WGA FLASHPLATE®s (PerkinElmer Life Sciences, Cat # SMP105A) in a volume of 200 μL containing ˜45 fmol of P2Y1 receptor (5 μg of total protein), 0.5 nM [^33P] […] Reactions were allowed to proceed to completion at room temperature for 1 hour and then the aqueous solution aspirated. Plates were sealed and the residual [^33P] bound to the plate determined by scintillation counting.

Assay [2] relates to human platelet rich plasma (PRP). As to the kind of experiment: ADP induced platelet aggregation assay. To be noted: Homo sapiens, Platelet, 5 min, read-out: PA IC50 (μM) @ 10 μM ADP, human PRP, 10 μM ADP, AUC at 5 minute.

Sequence of cloned human P2Y1 receptors (P47900 whole entry): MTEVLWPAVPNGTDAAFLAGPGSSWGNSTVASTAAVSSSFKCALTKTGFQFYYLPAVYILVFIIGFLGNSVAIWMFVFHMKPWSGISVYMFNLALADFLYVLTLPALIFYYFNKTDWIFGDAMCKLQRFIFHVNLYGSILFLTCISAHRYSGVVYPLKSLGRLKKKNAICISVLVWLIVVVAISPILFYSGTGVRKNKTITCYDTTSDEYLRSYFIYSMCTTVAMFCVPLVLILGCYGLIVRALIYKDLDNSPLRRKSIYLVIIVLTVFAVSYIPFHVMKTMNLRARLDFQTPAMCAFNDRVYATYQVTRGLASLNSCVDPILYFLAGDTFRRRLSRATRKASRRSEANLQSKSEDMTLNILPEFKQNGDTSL

For orientation: Ki means the dissociation constant of the complex between target and ligand, obtained from inhibition or displacement. The term IC50 denotes the concentration that gives 50% inhibition. For `CC1(C)CN(c2ccccc2NC(=O)Nc2nc3ccc(F)cc3s2)c2c(O)ccc(-c3nc4ccc(F)cc4s3)c21` [Example 175, 1-(6-Fluorobenzo[d]thiazol-2-yl)-3-(2-(4-(6-fluorobenzo[d]thiazol-2-yl)-7-hydroxy-3,3-dimethylindolin-1-yl)phenyl)urea], in assay [1], the Ki was found to be 17.6 nM. Besides, the half-inhibitory concentration (IC50) in assay [2] was determined as 0.35 µM.

Turning to `CC1(C)CN(c2ccccc2NC(=O)Nc2nc3ccc(Cl)nc3s2)c2c(O)ccc(-c3nc4ccc(F)cc4s3)c21` [Example 176, 1-(5-Chlorothiazolo[5,4-b]pyridin-2-yl)-3-(2-(4-(6-fluorobenzo[d]thiazol-2-yl)-7-hydroxy-3,3-dimethylindolin-1-yl)phenyl)urea], the Ki in assay [1] was found to be 13 nM. Besides, the IC50 in assay [2] was 0.35 µM.

In the case of `CC1(C)CN(c2ccccc2NC(=O)Nc2csc(C(F)(F)F)n2)c2c(O)cc(F)c(-c3ccc(C(F)(F)F)cc3)c21` [Example 217, 1-(2-(5-Fluoro-7-hydroxy-3,3-dimethyl-4-(4-(trifluoromethyl)phenyl)indolin-1-yl)phenyl)-3-(2-(trifluoromethyl)thiazol-4-yl)urea], the Ki in assay [1] was determined as 8 nM. The IC50 in assay [2] came out at 0.16 µM.

In the case of `CC1(C)CN(c2ccccc2NC(=O)Nc2csc(C(F)(F)F)n2)c2c(O)cc(F)c(-c3ccc(Cl)cc3)c21` [Example 218, 1-(2-(4-(4-Chlorophenyl)-5-fluoro-7-hydroxy-3,3-dimethylindolin-1-yl)phenyl)-3-(2-(trifluoromethyl)thiazol-4-yl)urea], the Ki in assay [1] was found to be 9.3 nM. Further, in assay [2], the half-maximal inhibitory concentration (IC50) was determined as 0.37 µM.
